# Like-named read-outs stand apart in the source and are kept apart here. Ends that are not written are not given here.
# How the values were obtained:
# [1] = test system: fusion of HIV-1 gp120-41 expressing TF228 cells with CD4+CXCR4+3T3 mouse fibroblasts; assay: Dye transfer fusion assay (cell-cell fusion); assay type: cell-based; conditions: for inhibition of HIV-1 mediated cell-cell fusion: dye transfer, co-culture 2 hours at 37° C.; for inhibition compared with the wild-type peptide: dye transfer fusion assay
# Description: Peptide inhibition of cell-cell fusion was assayed by monitoring the redistribution of two fluorescent probes: a water-soluble probe and a lipophilic probe, between target and effector cells upon their co-incubation with these probes (Munoz-Barroso I., et al., 1998, J. Cell Biol. 140: 315-323). The HIV-1 gp120-41 expressing TF228 cells (Jonak, Z. L., et al., 1993, AIDS Res. Hum. Retrovir. 9:23-32) were labeled with either calcein or a green fluorescent fatty acid as follows: HIV-1 gp120-41 expressing TF228 cells were incubated with 1 μM calcein for 60 minutes at 37° C., and then washed and resuspended at 10^5 cells/ml in RPMI medium. Alternatively, the HIV-1 gp120-41 expressing TF228 cells were labeled with the fatty acid 4,4-difluoro-5-methyl-4-bora-3a, 4a-diaza-s-indacene-3-dodecanoic acid (C1-BODIPY-C12; (Molecular Probes, Eugene, Oreg.)) as follows: HIV-1 gp120-41 expressing TF228 cells were seeded at 10^5 cells/ml in RPMI medium containing 10 mg/ml of the C1-BODIPY-C12 and grown for three days prior to the experiment. The fatty acid was eventually metabolized into phospholipid, primarily phosphatidylcholine. The cells where then washed and resuspended at 10^5 cells/ml. The target cells, CD4+CXCR4+3T3 mouse fibroblasts, were plated at 10^5 cells/ml the night before the experiment. The next day, the CD4+CXCR4+3T3 cells were labeled with 20 μM [5-(and -6) ((4-Chloromethyl)benzoyl)amino)) tetramethylrhodamine (CMTMR) for one hour at 37° C., washed several times and combined with the effector cells (1:3 target-effector cell ratio). Different concentrations of peptides, dissolved in PBS or Tris buffer, were then added. The cells were co-cultured for 2 hours at 37° C. in 12 well plates (Costar, Cambridge, Mass.). Phase and fluorescent images were collected using an Olympus IX70 coupled to a CCD camera (Princeton Instruments, Trenton, N.J.) with a 20× objective lens. An 82000 optical filter cube (Chroma Technology Corp., Brattleboro, Vt.) was used for the excitation of calcein (494/517), BODIPY (500/510), and CMTMR (541/565). Three images per well were collected and then analyzed using metamorph software (Universal Imaging, WestChester, Pa.) for dye transfer from the donor to the acceptor cell. The scoring of fusion events was conducted as described by Munoz-Barroso et al. (ibid.).
# [2] = target: wt-fusion peptide (N-terminal 33 segment of gp41) (Human immunodeficiency virus type 1 group M subtype B, UniProt P03377); conditions: NBD-wt donor 0.05 μM, Rho acceptor 0.025-0.35 μM, SUV 400 μM
# Description: The self-association of the peptides in their membrane-bound state was monitored by employing resonance energy transfer measurements. Fluorescence resonance energy transfer was measured using NBD-labeled peptides serving as donors and Rho (rhodamine)-labeled peptides serving as energy acceptors. Fluorescence spectra were obtained at room temperature with excitation set at 467 nm using a 10 nm slit width. In a typical experiment, donor peptide (final concentration 0.04 μM) was added to a dispersion of phosphatidylcholine/cholesterol (PC/Chol; 10:1 w/w) small unilamellar vesicles (SUV; 224 μM) in PBS, followed by the addition of acceptor peptide in several sequential doses. Fluorescence spectra were obtained before and after addition of the acceptor. The efficiency of energy transfer (E) was determined by measuring the decrease in the quantum yield of the donor as a result of the presence of acceptor. E was determined experimentally from the ratio of the fluorescence intensities of the donor in the presence (Ida) and in the absence (Id) of the acceptor, at the donor's maximum emission wavelength. The percentage of transfer efficiency (E), is given by:
# The contribution of buffer and vesicles was subtracted from all measurements. […] The acceptor-peptide was added only after the donor-peptide was already bound to the membrane, thus decreasing association in solution. […]
# activated T-cells = assay: Binding of NBD-labeled fusion peptides to T-cells (confocal fluorescence microscopy); assay type: cell-based; set-up: dose or concentration left out as unconfirmed; conditions: 30 minutes, room temperature
# Description: Nitrobenzofurazane (NBD)-labeled wt-fusion peptide or NBD-labeled diastereomeric fusion peptide (herein designated IFFA) were studied for their binding to activated T-cells as follows: Activated T-cells (10,000/ml) were incubated for 30 minutes at room temperature with NBD labeled wt- or IFFA-fusion peptides (0.5 mM final concentration). The cells were washed twice with PBS (100 ml) in order to remove excess of unbound peptide. The cells were then observed under the fluorescent confocal microscope. NBD excitation was at 488 nm with the laser set at 2% power to prevent bleaching of the fluorophore. Fluorescence data was collected from 525 nm and up.
# [3] = test system: ToxR GPA (GPA transmembrane domain); assay: ToxR GPA heterodimer formation (β-galactosidase reporter); assay type: cell-based
# Description: The ToxR GPA plasmid construct is a simple and robust method for detecting homodimerization of transmembrane domains in vivo (Langosch, D., et al., 1996, J. Mol. Biol. 263: 525-530). The detection is done through the signal of a β-galactosidase reporter gene. Heterodimerization can be detected through addition of an exogenous peptide. […] The 2D-GPA peptide of SEQ ID NO:11 was exogenously added to the system in increasing doses (0.5-20 μM; FIG. 5). […] The inhibition was calculated as follows: I is the inhibitory ability of the peptide, Apeptide is the activity of ToxR-GPA in the presence of the peptide, Amax is the maximal activity of ToxR-GPA without peptide, and Abaseline is the baseline activity of the monomer A16 plasmid, a plasmid containing a peptide which consists of 16 amino acids all of which are alanine (Langosch, D., et al., 1996, J. Mol. Biol. 263: 525-530).
# IC50 was calculated by fitting normalized data to the Langmuir equation (equation 3) in the Origin 6.0 commercial program.
# Were A represents ToxR-GPA transcription factor, B represents the exogenous peptide, I represents inhibition of beta-galactosidase activity (1-activity) and K is a scaling constant.
# FHK12 bacterial membrane = assay: Binding of NBD labeled peptide to bacterial membrane (confocal); assay type: cell-based; conditions: NBD labeled peptide 500 nM
# Description: The binding of 2D-GPA to the membrane of the FHK12 bacteria is a prerequisite for the interaction between the peptide and the GPA ToxR construct. In order to verify this binding, the bacteria were observed under a confocal microscope in the absence or presence of a NBD labeled 2D-GPA peptide at a 500 nM concentration. Experiments were done as follows: FHK12 bacteria were diluted 1:10000 and incubated with NBD labeled 2D-GPA, final concentration of 500 nM, for 30 seconds. Samples were fixed with Glutaraldehyde at a final concentration of 0.001% for 30 seconds, centrifuged and washed 3 times with fresh PBS. Confocal images were obtained using an Olympus IX70 FV500 confocal laser-scanning microscope. […] The confocal images were obtained at 12-bit resolution.
# wt-GPA = target: T1, wt-GPA (Homo sapiens, UniProt P02724); assay: FRET between wt-GPA and diastereomer in LUV; assay type: binding; conditions: donor 0.1 μM, acceptor 0.01-0.05 μM, LUV 340 μM
# T1 construct: ITLIIFGVMAGVIGT; fluorophore label (NBD); made in house; host or cells: chemical peptide synthesis
# Description: Wild type (wt)-GPA and the 2D-GPA analog were synthetically labeled with Rhodamine and NBD, respectively, and fluorescent resonance energy transfer (FRET) experiments were performed with NBD-labeled peptides serving as energy donors and Rhodamine-labeled peptides serving as energy acceptors. […] In a typical experiment, a donor peptide (final concentration 0.1 μM) was added to a dispersion of large unilamellar vesicles (LUV; 340 μM) in PBS. This was followed by the addition of an acceptor peptide in increasing doses ranging from 0.01 to 0.05 μM. At this peptide to lipid ratios, complete membrane binding is expected for all the transmembrane peptides. […] The percentage of transfer efficiency (E), is given by:
# The R0 for this pair of donor-acceptor fluorophores is around 51 Å.
# [4] = test system: ToxR GPA construct in FHK12 bacteria; assay: ToxR receptor expression levels (Western blot); assay type: cell-based; conditions: anti maltose binding protein
# Description: Bacteria FHK12 cells were grown in the presence or absence of 2D-GPA, 10 μl samples were added to 2× sample buffer and boiled for 5 minutes. The samples were separated on a 12% SDS-PAGE and thereafter were blotted. The primary antibody used was anti maltose binding protein. The detection was performed with Phototope-HRP Western Blot Detection System (Cell Signaling Technology, MA, USA).
# Tar-1 all-L NBD peptide = Tar-1 all-L NBD peptide (Escherichia coli, UniProt P07017); conditions: donor Tar-1 all-L NBD peptide; acceptor-to-lipid ratio of 1:7500; PE/PG SUV
# Description: To investigate the direct interaction between the two enantiomers of Tar-1 in an isolated in vitro system, fluorescence energy transfer (FRET) between fluorescently labeled Tar-1 wild-type peptide and its diastereomeric analog was measured. The assay was performed in a model lipid environment of small unilamellar vesicles (SUV) composed of negatively charged PE/PG lipids (7:3 w/w). This phospholipid composition is typical of the E. coli inner membrane. The Tar-1 peptides were labeled with NBD as the donor fluorophore or rhodamine-TAMRA as the acceptor fluorophore, and FRET was measured.
# [5] = test system: Tar-1 TM domain (ToxR-MalE chimera); conditions: different concentrations of exogenous peptide, FIG. 9
# Source text: The ToxR transcription activator can be used successfully to assess weak protein-protein interactions within the E. coli membrane. A Tar-1 TM domain encoding the DNA cassette was grafted between the ToxR transcription activator and the maltose binding protein in the ToxR-MalE plasmid. The plasmid was then transformed into E. coli FHK12 cells, which contain β-galactosidase, under the control of a ctx promoter. Dimerization of the TM domains, in this system, results in association and activation of the ToxR transcription activator, which then becomes active and is able to bind the ctx promoter. Quantification of the amount of homo-dimerization was done by measuring the activity of the β-galactosidase reporter gene and by normalizing it to the cell content (OD590) (miller units)
# The ability of the Tar-1 peptides to disrupt the proper dimerization of the wild-type transmembrane (TM) domain was thus investigated by using the ToxR system. This TM assembly system can assess the dimerization of a specific TM domain grafted between the ToxR transcription activator and the maltose binding protein, MalE. […] The TM-TM interactions were monitored by measuring the activity of β-galactosidase in the presence of different concentrations of exogenous Tar-1 analog peptides.
# [6] = test system: HIV1 gp41 mediated viral fusion; conditions: literature; cited from earlier work
molecule,measurement,setting,value
O=C(N[C@H](CO)[C@H](O)c1ccc([N+](=O)[O-])cc1)C(Cl)Cl [chloramphenicol],cell density (growth) of the bacteria,CP362 containing pNT201,zero growth
"AVGIGALF [8-mer wild-type control peptide, reference compound]",inhibition of HIV-1 mediated cell-cell fusion,[1],completely devoid of inhibitory effect
AVGIGALFLGFLG [reference compound],inhibition of HIV-1 mediated cell-cell fusion,[1],completely devoid of inhibitory activity
AVGIGALFLGFLGAAGSTMGARSMTLTVQARQL [IFFA],concentration showing significant inhibitory effect on cell-fusion,[1]; FIG. 2,10 ng/mL
same,inhibition compared with the wild-type peptide,[1],identical to that of the wild-type (wt) fusion peptide
same,association with wt-fusion peptide (energy transfer),[2],associate with the wt-fusion peptide
AVGIGALFLGFLGAAGSTMGARSMTLTVQARQL [wt-fusion peptide],binding to T-cells,activated T-cells,high affinity binding to T-cells
"D-L^669, W^670-DP178 [[D-LW]-DP178]",inhibition compared with the wild-type peptide,[1],more active than the wild-type DP178
same,inhibition of HIV-1 mediated cell-cell fusion,[1],inhibited the fusion
"D-S^649, Q^650-DP178 [[D-SQ]-DP178]",inhibition of HIV-1 mediated cell-cell fusion,[1],completely inactive
"FFGAVIGTIALGVATSAQITAGIALAEAREAKR [fusion peptide of Sendai virus, reference compound]",inhibition of HIV-1 mediated cell-cell fusion,[1],completely devoid of inhibitory activity
"ITLIIFGVMAGVIGT [2D-GPA, GPA transmembrane domain analog, L-valines at positions 80 and 84 replaced by their D-enantiomer]",inhibition of ToxR GPA homodimer signal,[3]; exogenous peptide 0.5-20 μM,concentration dependent inhibitory effect
same,IC50,"[3]; extrapolated from the fit to Langmuir equation, read-out: IC50 of the interaction with the integral GPA transmembrane domain",0.29 µM
same,localization in FHK12 bacteria,FHK12 bacterial membrane,localized in the bacterial membrane
same,fluorescence energy transfer with wt-GPA,wt-GPA,fluorescence energy transfer increased
same,effect on expression levels of the ToxR GPA construct,[4],no significant differences were detected
"KKITLIIFGVMAGVIGT (also: D-amino acids, which not given here) [SEQ ID NO:12, another diastereomeric GPA peptide]",effect on expression levels of the ToxR GPA construct,[4],did not affect the expression levels
"KKITLIIFGVMAGVIGT [all L GPA, reference compound]",IC50,"[3]; previous all L and all D GPA results fitted to this model, read-out: IC50 of the interaction with the GPA transmembrane domain",0.36 µM
"KKKMVLGVFALLQLISGSLKK (KKKMVLGVFALLQLISGSLKK-NH2; also: D-amino acids, which not given here) [Tar-1 diastereomer]",energy transfer,Tar-1 all-L NBD peptide,about 30%
same,inhibition of Tar-1 TM domain dimerization (β-galactosidase activity),[5],interfered with the proper dimerization
"KKKMVLGVFALLQLISGSLKK [Tar-1 all-L, reference compound]",inhibition of Tar-1 TM domain dimerization (β-galactosidase activity),[5]; listed as Tar-1 all-L peptide,inhibition profile similar to its diastereomeric counterpart
enfuvirtide,inhibition of viral fusion,[6],competent inhibitors of viral fusion

# From patent publication US20100240589A1, “DIASTEREOMERIC PEPTIDES USEFUL AS INHIBITORS OF MEMBRANE PROTEIN ASSEMBLY” (YEDA RESEARCH AND DEVELOPMENT CO., LTD. AT THE WEIZMANN …, priority 2003, published 2010)
